Test results as given in the supplement of paper PMC10307832.

Assays:
Test in all cases: relative viability (nuclei count vs DMSO), 5 days (fraction); higher = more cells survive
[1] = system: HARA
Outline: (§1)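 A single step with final 0.05% Triton X-100, 1% formaldehyde and 1 ug/ml Hoechst fixed the cells and stained nuclei 5 days after treatment. Lung cancer cell lines in 1536-well plates had been treated by pin tool the day after seeding with one drug alone or a fixed anchor-drug dose plus five library-drug doses (not always all listed) in √10 steps, and nuclei were counted on 4× images. Relative viability is the ratio of nuclei in treated wells to nuclei in vehicle wells, taken as the median of duplicate plates.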

[2] = system: NCI-H2023
Outline: as §1

[3] = system: NCI-H3122
Outline: as §1

[4] = system: BEN
Outline: as §1

[5] = system: NCI-H596
Outline: as §1

[6] = system: NCI-H23
Outline: as §1

[7] = system: HCC-44
Outline: as §1

[8] = system: NCI-H1395
Outline: as §1

[9] = system: LOU-NH91
Outline: as §1

[10] = system: 201T
Outline: as §1

[11] = system: NCI-H2347
Outline: as §1

[12] = system: NCI-H2087
Outline: as §1

[13] = system: NCI-H838
Outline: as §1

[14] = system: NCI-H441
Outline: as §1

[15] = system: EMC-BAC-2
Outline: as §1

[16] = system: NCI-H647
Outline: as §1

[17] = system: NCI-H650
Outline: as §1

[18] = system: LCLC-103H
Outline: as §1

[19] = system: NCI-H2126
Outline: as §1

[20] = system: NCI-H1993
Outline: as §1

[21] = system: NCI-H727
Outline: as §1

Q: How did the relative viability ([1]; first compound 0.01 µM) turn out when CCN(CC)CCCCNc1ncc2cc(-c3cc(OC)cc(OC)c3)c(NC(=O)NC(C)(C)C)nc2n1 + Cc1nc(NC(=O)N2CCC[C@H]2C(N)=O)sc1-c1ccnc(C(C)(C)C(F)(F)F)c1 [Alpelisib] (partner 2 µM) was run?
A: The relative viability was 1.06.

Q: What about the relative viability ([1]; first compound 0.03162 µM) of the same molecule?
A: The relative viability was 0.872.

Q: And the relative viability ([1]; first compound 0.1 µM)?
A: Its relative viability is 1.03.

Q: What about the relative viability ([1]; first compound 0.3162 µM) of the same molecule?
A: Its relative viability is 0.801.

Q: What about the relative viability ([1]; first compound 1 µM) of the same molecule?
A: The relative viability was 0.685.

Q: And the relative viability ([2]; first compound 0.01 µM)?
A: The relative viability was 0.685.

Q: What about the relative viability ([2]; first compound 0.03162 µM) of the same molecule?
A: Its relative viability is 0.608.

Q: What about the relative viability ([2]; first compound 0.1 µM) of the same molecule?
A: The relative viability was 0.615.

Q: And the relative viability ([2]; first compound 0.3162 µM)?
A: The relative viability was 0.676.

Q: What about the relative viability ([2]; first compound 1 µM) of the same molecule?
A: Its relative viability is 0.529.

Q: What about the relative viability ([3]; first compound 0.01 µM) of the same molecule?
A: Its relative viability is 0.941.

Q: What about the relative viability ([3]; first compound 0.03162 µM) of the same molecule?
A: Its relative viability is 0.877.

Q: And the relative viability ([3]; first compound 0.1 µM)?
A: Its relative viability is 0.906.

Q: What about the relative viability ([3]; first compound 0.3162 µM) of the same molecule?
A: The relative viability was 0.931.

Q: What about the relative viability ([3]; first compound 1 µM) of the same molecule?
A: Its relative viability is 0.824.

Q: What about the relative viability ([4]; first compound 0.01 µM) of the same molecule?
A: Its relative viability is 1.17.

Q: What about the relative viability ([4]; first compound 0.03162 µM) of the same molecule?
A: The relative viability was 0.891.

Q: What about the relative viability ([4]; first compound 0.1 µM) of the same molecule?
A: Its relative viability is 0.882.

Q: And the relative viability ([4]; first compound 0.3162 µM)?
A: Its relative viability is 1.12.

Q: And the relative viability ([4]; first compound 1 µM)?
A: The relative viability was 0.801.

Q: What about the relative viability ([5]; first compound 0.01 µM) of the same molecule?
A: Its relative viability is 0.528.

Q: And the relative viability ([5]; first compound 0.03162 µM)?
A: The relative viability was 0.48.

Q: What about the relative viability ([5]; first compound 0.1 µM) of the same molecule?
A: Its relative viability is 0.478.

Q: What about the relative viability ([5]; first compound 0.3162 µM) of the same molecule?
A: Its relative viability is 0.549.

Q: And the relative viability ([5]; first compound 1 µM)?
A: The relative viability was 0.368.

Q: And the relative viability ([6]; first compound 0.01 µM)?
A: The relative viability was 0.706.

Q: What about the relative viability ([6]; first compound 0.03162 µM) of the same molecule?
A: The relative viability was 0.735.

Q: And the relative viability ([6]; first compound 0.1 µM)?
A: Its relative viability is 0.851.

Q: What about the relative viability ([6]; first compound 0.3162 µM) of the same molecule?
A: The relative viability was 0.653.

Q: And the relative viability ([6]; first compound 1 µM)?
A: The relative viability was 0.678.

Q: What about the relative viability ([7]; first compound 0.01 µM) of the same molecule?
A: The relative viability was 0.93.

Q: What about the relative viability ([7]; first compound 0.03162 µM) of the same molecule?
A: The relative viability was 0.9.

Q: And the relative viability ([7]; first compound 0.1 µM)?
A: Its relative viability is 1.12.

Q: And the relative viability ([7]; first compound 0.3162 µM)?
A: Its relative viability is 0.87.

Q: What about the relative viability ([7]; first compound 1 µM) of the same molecule?
A: The relative viability was 0.772.

Q: What about the relative viability ([8]; first compound 0.03162 µM) of the same molecule?
A: Its relative viability is 1.19.

Q: And the relative viability ([8]; first compound 0.1 µM)?
A: The relative viability was 1.07.

Q: What about the relative viability ([8]; first compound 0.3162 µM) of the same molecule?
A: Its relative viability is 0.802.

Q: What about the relative viability ([8]; first compound 1 µM) of the same molecule?
A: The relative viability was 0.637.

Q: What about the relative viability ([9]; first compound 0.01 µM) of the same molecule?
A: Its relative viability is 0.672.

Q: And the relative viability ([9]; first compound 0.03162 µM)?
A: The relative viability was 0.673.

Q: What about the relative viability ([9]; first compound 0.1 µM) of the same molecule?
A: Its relative viability is 0.741.

Q: And the relative viability ([9]; first compound 0.3162 µM)?
A: Its relative viability is 0.734.

Q: And the relative viability ([9]; first compound 1 µM)?
A: The relative viability was 0.696.

Q: And the relative viability ([10]; first compound 0.01 µM)?
A: Its relative viability is 1.05.

Q: And the relative viability ([10]; first compound 0.03162 µM)?
A: Its relative viability is 1.01.

Q: What about the relative viability ([10]; first compound 0.1 µM) of the same molecule?
A: Its relative viability is 1.09.

Q: What about the relative viability ([10]; first compound 0.3162 µM) of the same molecule?
A: Its relative viability is 1.1.

Q: And the relative viability ([10]; first compound 1 µM)?
A: The relative viability was 0.97.

Q: And the relative viability ([11]; first compound 0.01 µM)?
A: Its relative viability is 1.08.

Q: And the relative viability ([11]; first compound 0.03162 µM)?
A: The relative viability was 1.09.

Q: And the relative viability ([11]; first compound 0.1 µM)?
A: The relative viability was 1.04.

Q: And the relative viability ([11]; first compound 0.3162 µM)?
A: The relative viability was 1.09.

Q: What about the relative viability ([11]; first compound 1 µM) of the same molecule?
A: The relative viability was 1.11.

Q: And the relative viability ([12]; first compound 0.01 µM)?
A: Its relative viability is 1.12.

Q: What about the relative viability ([12]; first compound 0.03162 µM) of the same molecule?
A: The relative viability was 1.03.

Q: And the relative viability ([12]; first compound 0.1 µM)?
A: The relative viability was 1.53.

Q: What about the relative viability ([12]; first compound 0.3162 µM) of the same molecule?
A: Its relative viability is 1.23.

Q: What about the relative viability ([12]; first compound 1 µM) of the same molecule?
A: The relative viability was 1.15.

Q: What about the relative viability ([13]; first compound 0.01 µM) of the same molecule?
A: Its relative viability is 1.11.

Q: What about the relative viability ([13]; first compound 0.03162 µM) of the same molecule?
A: The relative viability was 0.964.

Q: What about the relative viability ([13]; first compound 0.1 µM) of the same molecule?
A: Its relative viability is 0.996.

Q: And the relative viability ([13]; first compound 0.3162 µM)?
A: Its relative viability is 1.04.

Q: And the relative viability ([13]; first compound 1 µM)?
A: The relative viability was 0.602.

Q: And the relative viability ([14]; first compound 0.01 µM)?
A: Its relative viability is 0.801.

Q: And the relative viability ([14]; first compound 0.03162 µM)?
A: The relative viability was 0.62.

Q: What about the relative viability ([14]; first compound 0.1 µM) of the same molecule?
A: Its relative viability is 0.698.

Q: And the relative viability ([14]; first compound 0.3162 µM)?
A: The relative viability was 0.708.

Q: What about the relative viability ([14]; first compound 1 µM) of the same molecule?
A: The relative viability was 0.773.

Q: And the relative viability ([15]; first compound 0.01 µM)?
A: Its relative viability is 0.731.

Q: What about the relative viability ([15]; first compound 0.03162 µM) of the same molecule?
A: The relative viability was 0.798.

Q: What about the relative viability ([15]; first compound 0.1 µM) of the same molecule?
A: Its relative viability is 0.811.

Q: What about the relative viability ([15]; first compound 0.3162 µM) of the same molecule?
A: The relative viability was 0.804.

Q: What about the relative viability ([15]; first compound 1 µM) of the same molecule?
A: The relative viability was 0.688.

Q: And the relative viability ([16]; first compound 0.01 µM)?
A: The relative viability was 1.41.

Q: And the relative viability ([16]; first compound 0.03162 µM)?
A: The relative viability was 1.3.

Q: And the relative viability ([16]; first compound 0.1 µM)?
A: The relative viability was 1.31.

Q: What about the relative viability ([16]; first compound 0.3162 µM) of the same molecule?
A: Its relative viability is 1.13.

Q: And the relative viability ([16]; first compound 1 µM)?
A: Its relative viability is 0.465.

Q: And the relative viability ([17]; first compound 0.01 µM)?
A: Its relative viability is 1.04.

Q: And the relative viability ([17]; first compound 0.03162 µM)?
A: The relative viability was 1.04.

Q: What about the relative viability ([17]; first compound 0.1 µM) of the same molecule?
A: Its relative viability is 1.21.

Q: And the relative viability ([17]; first compound 0.3162 µM)?
A: The relative viability was 1.09.

Q: And the relative viability ([17]; first compound 1 µM)?
A: Its relative viability is 0.865.

Q: And the relative viability ([18]; first compound 0.01 µM)?
A: The relative viability was 1.09.

Q: What about the relative viability ([18]; first compound 0.03162 µM) of the same molecule?
A: Its relative viability is 0.967.

Q: What about the relative viability ([18]; first compound 0.1 µM) of the same molecule?
A: The relative viability was 0.975.

Q: What about the relative viability ([18]; first compound 0.3162 µM) of the same molecule?
A: Its relative viability is 1.01.

Q: What about the relative viability ([18]; first compound 1 µM) of the same molecule?
A: Its relative viability is 1.01.

Q: What about the relative viability ([19]; first compound 0.01 µM) of the same molecule?
A: The relative viability was 0.736.

Q: And the relative viability ([19]; first compound 0.03162 µM)?
A: The relative viability was 0.734.

Q: What about the relative viability ([19]; first compound 0.1 µM) of the same molecule?
A: Its relative viability is 0.742.

Q: What about the relative viability ([19]; first compound 0.3162 µM) of the same molecule?
A: The relative viability was 0.815.

Q: What about the relative viability ([19]; first compound 1 µM) of the same molecule?
A: Its relative viability is 0.75.

Q: What about the relative viability ([20]; first compound 0.01 µM) of the same molecule?
A: Its relative viability is 0.635.

Q: And the relative viability ([20]; first compound 0.03162 µM)?
A: The relative viability was 0.707.

Q: And the relative viability ([20]; first compound 0.1 µM)?
A: The relative viability was 0.691.

Q: And the relative viability ([20]; first compound 0.3162 µM)?
A: Its relative viability is 0.677.

Q: And the relative viability ([20]; first compound 1 µM)?
A: The relative viability was 0.672.

Q: And the relative viability ([21]; first compound 0.01 µM)?
A: The relative viability was 0.586.

Q: And the relative viability ([21]; first compound 0.03162 µM)?
A: The relative viability was 0.449.

Q: What about the relative viability ([21]; first compound 0.1 µM) of the same molecule?
A: The relative viability was 0.678.

Q: And the relative viability ([21]; first compound 0.3162 µM)?
A: The relative viability was 0.579.

Q: What about the relative viability ([21]; first compound 1 µM) of the same molecule?
A: The relative viability was 0.543.
